Test results from the supplement of paper PMC10949913.

Key:
NCI-H295R = assay: area under concentration-response curve (viability) (AUC (a.u.)); higher = less active; details: 48 h
In short: (§1)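 Three adrenocortical carcinoma cell lines were plated in 1,536-well plates at 500–1,000 cells/well in 5 µL medium, and 23 nL of each library compound was added at 11 concentrations. After 48 h, CellTiter-Glo was applied for 15 minutes at room temperature before luminescence was read. Each plate's signals were normalised to vehicle and empty-well controls. AC50 and area under the curve were taken from fitted concentration-response curves, with only inhibitory or non-responding curve classes retained.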

CU-ACC1 = assay: as above; details: 48 h
In short: as §1

| Structure (SMILES) | area under concentration-response curve (NCI-H295R) | area under concentration-response curve (CU-ACC1) |
| --- | --- | --- |
| C[C@@]1(c2ncncc2F)NC(=O)c2cc(-c3cn[nH]c3)ccc21 | 546 | 528 |
| O=C(O)C1(Cc2cccc(Nc3nccs3)n2)CCC(Oc2cccc(Cl)c2F)CC1 (centres undefined) | 510 | 511 |
| Cn1c(CCCC(=O)O)nc2cc(N(CCCl)CCCl)ccc21 | 540 | 475 |
| c1ccc2c(Oc3nc(Nc4ccc(N5CCOCC5)cc4)c4ncn(C5CCCCC5)c4n3)cccc2c1 | 535 | 481 |
| CONC(=O)Nc1ccc(-c2sc3c(c2CN(C)Cc2ccccc2)c(=O)n(-c2ccccc2)c(=O)n3Cc2c(F)cccc2F)cc1 | 556 | 531 |
| CCN(C1CCOCC1)C2=C(C)C(=CC(=C2)C3=CC=C(CN4CCOCC4)C=C3)C(=O)NC\C5=C(C)\C=C(C)/NC5=O | 249 | 262 |
| Nc1nc2cc(-c3ccc4ncc(C(=O)N5CCOCC5)n4c3)ccc2o1 | 478 | 514 |
| N[C@H](CSC(c1ccccc1)(c1ccccc1)c1ccccc1)C(=O)O | 564 | 529 |
| C1C\N=C(\NC(C2CC2)C3CC3)O1 | 591 | 542 |
| Cc1ccc(Nc2cc(-c3cccc(N4C(=O)c5ccccc5C4=O)c3)ncn2)cc1N[S+](C)(=O)[O-] | 490 | 462 |
| COC(=O)C[C@](O)(CCCC(C)(C)O)C(=O)O[C@@H]1C(OC)=CC23CCCN2CCc2cc4c(cc2[C@H]13)OCO4 (some centres undefined) | 252 | 149 |
| C=C1C[C@@]2(O)O[C@@]3(C[C@H]2C(C)C)[C@@H](C)CC[C@@H]13 | 541 | 487 |
| CN(C[C@@H]1COCCO1)[S+]([O-])(=O)NC2=CC3=C(C=C2)\C=C/C4=C(C=C(C=N4)C5=C[N](C)N=C5)C3=O | 578 | 547 |
| COc1cccc(OC)c1-c1cc(C(=O)NC2(C(=O)O)C3CC4CC(C3)CC2C4)nn1-c1ccnc2cc(Cl)ccc12 (centres undefined) | 569 | 513 |
| COC(=O)[C@@H]1CC/2=C/C(=O)CC[C@]2(C)[C@@]34O[C@@H]3C[C@@]5(C)[C@@H](CC[C@@]56CCC(=O)O6)[C@H]14 | 528 | 355 |
| COCCOC(=O)C/1=C(C)/NC/2=C(C1C3=CC=CC(=C3)O)/C(=O)CC(C2)C4=C(OC)C=CC=C4 (centres undefined) | 507 | 446 |
| NC(=O)c1cc(F)cc2c1C(=O)N(C1CCN(C3CCC(F)(F)CC3)CC1)C2 | 568 | 541 |
| CO[C@@H](C(=O)N1Cc2[nH]nc(NC(=O)c3ccc(N4CCN(C)CC4)cc3)c2C1)c1ccccc1 | 549 | 539 |
| CCCN1CCN(c2ccc(C(=O)NC3(C(=O)NCC#N)CCCCC3)cc2)CC1 | 299 | 375 |
| CN(C)CCN1C(=O)c2cccc3cc(NC(N)=O)cc(c23)C1=O | 542 | 521 |
| CC1(C)[C@@H](O)CC[C@@]2(C)[C@H]1CC[C@]3(C)[C@@H]2C(=O)\C=C/4[C@@H]5C[C@](C)(CC[C@]5(C)CC[C@@]34C)C(O)=O | 545 | 512 |

| Structure (SMILES) | area under concentration-response curve (NCI-H295R) | area under concentration-response curve (CU-ACC1) |
| --- | --- | --- |
| COc1nc(N)nc2c1ncn2C1OC(CO)C(O)C1O (centres undefined) | 469 | 461 |
| CCOC(=O)Nc1ccc(NCc2ccc(F)cc2)cc1N | 578 | 543 |
| COc1cc(C(=O)O)ccc1NC(=O)[C@@H]1N[C@@H](CC(C)(C)C)[C@](C#N)(c2ccc(Cl)cc2F)[C@H]1c1cccc(Cl)c1F | 540 | 469 |
| C[C@@H]1CC(=O)Nc2cccc(-c3cnn(C(C)(C)C)c3)c2N1 | 570 | 551 |
| CC1(C)O[C@@H]2C[C@H]3[C@@H]4CCC/5=C/C(=O)/C=C\[C@]5(C)[C@H]4[C@@H](O)C[C@]3(C)[C@@]2(O1)C(=O)CO | 524 | 469 |
| CC(C)(O)[C@H]1CC[C@@](C)([C@H]2[C@@H](O)C[C@@]3(C)[C@@H]4C[C@H](O[C@@H]5O[C@H](CO)[C@@H](O)[C@H](O)[C@H]5O)[C@H]5C(C)(C)[C@@H](O[C@@H]6OC[C@@H](O)[C@H](O)[C@H]6O)CC[C@@]56C[C@@]46CC[C@]23C)O1 | 547 | 535 |
| CONC(=O)Nc1ccc(-c2sc3c(c2CN(C)C)c(=O)n(-c2ccc(OC)nn2)c(=O)n3Cc2c(F)cccc2F)cc1 | 458 | 354 |
| COc1cc2c(cc1OC)C1CC(=O)C(CC(C)C)CN1CC2 (centres undefined) | 567 | 506 |
| Cc1ccccc1C(=O)Nc1ccc(C(=O)N2CCCC(O)c3cc(Cl)ccc32)c(C)c1 (centres undefined) | 536 | 484 |
| OCCN1CCN(CCCN2c3ccccc3Sc3ccc(C(F)(F)F)cc32)CC1 | 279 | 432 |
| CCCC[S+](=N)([O-])CCC(N)C(=O)O (centres undefined) | 533 | 472 |
| CN(C)C1=C(Br)C=C(C=C1)C\2NC3=C(\C4=C2C(=O)CC(C)(C)C4)C5=CC=CC=C5C=C3 (centres undefined) | 515 | 506 |
| Cc1ccc(Nc2cc(N[C@@H]3CCCC[C@@H]3N)nnc2C(N)=O)nc1C | 568 | 516 |
| O=C(Nc1cccc(C(F)(F)F)c1)c1cccc2cc(Oc3cc(CO)ncn3)ccc12 | 579 | 516 |
| C[N]1N=CN=C1[C@@H]2[C@H](NC3=CC(=CC4=C3\C2=N/NC4=O)F)C5=CC=C(F)C=C5 | 415 | 405 |
| CC(C)(C)C(=O)N1\N=C/C[C@H]1C2=CC=CC=C2 | 568 | 549 |
| O=[S+]([O-])(CC1CS1)c1ccc(Oc2ccccc2)cc1 (centres undefined) | 542 | – |
| C=CCN1C[C@H](C(=O)N(CCCN(C)C)C(=O)NCC)CC2c3cccc4[nH]cc(c34)C[C@H]21 (some centres undefined) | 545 | – |
| COc1cc2c(cc1O)CC[C@@H]1[C@@H]2CC[C@]2(C)[C@@H](O)CC[C@@H]12 | 383 | – |
| OC1=CC(=C(C=C1)\C2=C(O)\C(=O)C3=C(O2)C=C(O)C=C3O)O | 591 | – |
| CC(C)Oc1ccc2c(=O)c(-c3ccccc3)coc2c1 | 559 | – |
